PMC7698842, “Lanostane Triterpenoid Metabolites from a Penares sp. Marine Sponge Protect Neuro-2a Cells against Paraquat Neurotoxicity” (Molecules, 2020)

Columns and labels:
Type in all cases: cell-based, mouse
[1] = Cytotoxicity toward Neuro-2a cells (MTT assay); details: mouse, Neuro-2a neuroblastoma cells, 24 h
Description: The cells of mouse neuroblastoma cell line Neuro-2a (ATCC® CCL-131™; American Type Culture Collection, Manassas, VA, USA) were cultured in Dulbecco’s modified Eagle’s medium (DMEM) containing 10% fetal bovine serum (Biolot, St. Petersburg, Russia) and 1% penicillin/streptomycin (Biolot, St. Petersburg, Russia) at 37 °C in a humidified atmosphere with 5% (v/v) CO2. Initially, cells were incubated in cultural flasks until sub-confluent (~80%). For testing, Neuro-2a cells were seeded in 96- or 6-well plates and experiments were started after 24 h.
The cells (1 × 10^4 cells/well of a 96-well plate) were incubated with different concentrations of studied compounds during 24 h. After that, cell viability was determined by the MTT (3-(4,5-dimethylthiazol-2-yl)-2,5-diphenyltetrazolium bromide) method according to the manufacturer’s instructions (Sigma-Aldrich, St. Louis, MO, USA). Absorbance of the converted formazan was measured using a Multiskan FC microplate photometer (Thermo Scientific, Waltham, MA, USA) at λ = 570 nm. The results were presented as percent of control data, and concentration of cell viability inhibition on 50% (IC50) was calculated.

[2] = system: ROS level in PQ-treated Neuro-2a cells; assay: ROS level analysis in PQ-treated Neuro-2a cells (H2DCFDA); details: tested at 1 and 10 μM, PQ 500 µM 1 h
Description: The cells (1 × 10^4 cells/well of a 96-well plate) were incubated with compound solutions (1 and 10 µM) during 1 h. Then, PQ was added to cell suspension to a resulting concentration of 500 µM for incubation during 1 h. Cells incubated without PQ and compounds and with PQ alone were used as positive and negative controls, respectively. The 20 µL of 2,7-dichlorodihydrofluorescein diacetate solution (H2DCFDA, Molecular Probes, Eugene, OR, USA) was added to each well (10 µM, final concentration) and the plate was incubated for an additional 10 min at 37 °C. The intensity of dichlorofluorescin fluorescence was measured with a PHERAstar FS plate reader (BMG Labtech, Ortenberg, Germany) at λex = 485 nm and λem = 518 nm. The data were processed by MARS Data Analysis v. 3.01R2 (BMG Labtech, Ortenberg, Germany). The results were presented as percent of positive control data.

[3] = system: mitochondrial membrane potential in PQ-treated Neuro-2a cells; assay: Mitochondrial membrane potential detection (TMRM) in PQ-treated Neuro-2a cells; details: compound 10 μM, PQ 500 µM 1 h
Description: The cells (1 × 10^4 cells/well of a 96-well plate) were incubated with compound solutions (1 and 10 µM) during 1 h. Then, PQ was added to cell suspension to a resulting concentration of 500 µM for incubation during 1 h. Cells incubated without PQ and compounds and with PQ alone were used as positive and negative controls, respectively. The tetramethylrhodamine methyl (TMRM) (Sigma-Aldrich, St. Louis, MO, USA) solution at 500 nM was added in each well and cells were incubated for 30 min at 37 °C. The intensity of fluorescence was measured with a PHERAstar FS plate reader (BMG Labtech, Ortenberg, Germany) at λex = 540 nm and λem = 590 nm. The data were processed by MARS Data Analysis v. 3.01R2 (BMG Labtech, Ortenberg, Germany). The results were presented as percent of positive control data.

Question: What does the source list for CC(C)=CCC[C@@H](C)[C@H]1CC[C@@]2(C(=O)O)C3=C(CC[C@]12C)[C@@]1(C)CCC(=O)C(C)(C)[C@@H]1CC3 [Compound 4, penasterone]?
Answer: activity at 24 h, 10 µM ([1]; Neuro-2a cell viability, 10 μM, read-out: Cytotoxicity (MTT Assay) % of Control at 10 μM): 95.3 ± 2.7%; IC50 at 24 h ([1]; Neuro-2a cells): > 100 µM; concentrations at which ROS content in PQ-treated cells was reduced [2]: effective at concentrations of 1 and 10 μM; increase of intensity of TMRM fluorescence (PQ-induced mitochondrial dysfunction diminished) [3]: 28%
